US20080242870A1 (priority 2006, published 2008)
“And” between values parts separate entries of the source, which are not always exact repeats. Identical values can stand only once.

Assays:
Type in all cases: physicochemical
[1] = Radiative quantum yield against standards (Example 1)
Protocol: (§1) Unless otherwise stated, all experiments used optically dilute solutions (Optical Density (OD)<0.2) at room temperature. […] Emission spectra were obtained with an Aminco-Bowman luminescence spectrometer (Series 2). The excitation was accomplished with a 150 W Xe lamp optically coupled to a monochrometer (+2 nm). The emission was collected at […] and passed through a second monochrometer (±2 nm). Luminescence was measured with a photomultiplier tube (PMT).

[2] = Emission spectra of anthracene diimides at room temperature (Example 1); conditions: for Em. λmax: (p) peak, (s) shoulder
Protocol: as §1

[3] = Luminescence lifetime by TCSPC (Example 1); conditions: TCSPC 370 nm pulsed LED
Protocol: Luminescence lifetimes were measured with an IBH time-correlated single photon counting (TCSPC) system equipped with an IBH Model TBX-04 Photon Detection Module. The excitation source for the TCSPC measurements was a pulsed LED (IBH NanoLED, 455 nm, 1.3 ns pulse duration or 403 nm, <200 ps pulse duration) with a repetition rate of 1 MHz. All data was analyzed by iterative reconvolution of the decay profile (10,000 counts at the peak channel) with the instrument response function using software provided by the instrument manufacturer.

[4] = Absorption spectra of anthracene diimides in solvents of increasing polarity (Example 1)

Structure (SMILES) | Φr ([1]; ACN (38.8)) | Φr ([1]; Acetone (20.1)) | Φr ([1]; C2H4Cl2 (10.7)) | Φr ([1]; CHCl3 (4.8)) | Φr ([1]; Ethyl Acetate (6.02)) | Φr ([1]; THF (7.6)) | Φr ([1]; Toluene (2.4)) | Em. λmax ([2]; ACN (38.8)) | Em. λmax ([2]; Acetone (20.1)) | Em. λmax ([2]; C2H4Cl2 (10.7)) | Em. λmax ([2]; CHCl3 (4.8)) | Em. λmax ([2]; Ethyl Acetate (6.02)) | Em. λmax ([2]; THF (7.6)) | Em. λmax ([2]; Toluene (2.4)) | 1τ ([3]; Toluene (2.4)) [ns] | Abs. λmax ([4]; ACN (38.8)) [nm] | Abs. λmax ([4]; Acetone (20.1)) [nm] | Abs. λmax ([4]; C2H4Cl2 (10.7)) [nm] | Abs. λmax ([4]; CHCl3 (4.8)) [nm] | Abs. λmax ([4]; Ethyl Acetate (6.02)) [nm] | also measured
CCCCCCOc1ccc(-n2c(=O)c3c(-c4ccccc4)c4cc5c(-c6ccccc6)c6c(=O)n(-c7ccc(OCCCCCC)cc7)c(=O)c6c(-c6ccccc6)c5cc4c(-c4ccccc4)c3c2=O)cc1 [TP] | 0.0080 | 0.011 | 0.029 | 0.08 | 0.023 | 0.027 | 0.21 | 456(p) nm and 474(s) nm and 585(p) nm | 454(p) nm and 576(p) nm | 450(p) nm and 478(p) nm and 497(p) nm and 549(p) nm | 450(p) nm and 482(p) nm and 564(p) nm | 448(s) nm and 499(s) nm and 549(p) nm | 459(s) nm and 499(s) nm and 552(p) nm | 482(p) nm and 520(s) nm | 1.03 | 431 | 429 | 435 | 435 | 428 | Em. λmax ([2]; Toluene (2.4), listed as TP (41)): ~431 nm; Abs. λmax ([4]; THF (7.6)): 429 nm; Abs. λmax ([4]; Toluene (2.4)): 431 nm
CCCCCCCCn1c(=O)c2c(-c3ccccc3)c3cc4c(-c5ccccc5)c5c(=O)n(CCCCCCCC)c(=O)c5c(-c5ccccc5)c4cc3c(-c3ccccc3)c2c1=O [TPO] | 0.24 | 0.21 | 0.23 | 0.26 | 0.21 | 0.20 | 0.19 | 443(p) nm and 468(p) nm | 443(p) nm and 466(p) nm | 445(p) nm and 470(p) nm | 447(p) nm and 471(p) nm | 442(p) nm and 465(p) nm | 445(p) nm and 467(p) nm | 447(p) nm and 468(p) nm | 2.77 | 428 | 427 | 430 | 432 | 426 | emission band position ([2]; room temperature, all solvents): ~428 nm; 1τ ([3]; ACN (38.8)): 3.84 ns; 1τ ([3]; Acetone (20.1)): 3.34 ns; 1τ ([3]; C2H4Cl2 (10.7)): 3.19 ns; 1τ ([3]; CHCl3 (4.8)): 3.54 ns; 1τ ([3]; Ethyl Acetate (6.02)): 3.12 ns; 1τ ([3]; THF (7.6)): 3.03 ns; Abs. λmax ([4]; THF (7.6)): 427 nm; Abs. λmax ([4]; Toluene (2.4)): 428 nm
